The text below walks through data of publication PMC5860131, “Identification of natural products as novel ligands for the human 5-HT2C receptor” (Biophysics Reports, 2018).

The target in assay [1] is T1, 5-HT2A receptor (Homo sapiens, UniProt P28223).
T1 construct: expressed in transfected cells; host or cells: HEK 293T, stably transfected
Briefly: Ca2+ mobilization assay (Fluo-4, FLIPR), HEK 293T cells stably transfected with 5-HT2A. The class given is cell-based. From the text: The 5-HT2C receptor mainly couples to Gαq proteins. The activated 5-HT2C receptor transmits the signals from the extracellular to the intercellular side using DAG/IP3 (diacyl glycerol/inositol 1,4,5-trisphosphate) as its second massagers (Hannon and Hoyer [2008]). IP3 stimulates the endoplasmic reticulum to release calcium ions into the cytoplasm, which causes the increase of calcium concentration in cytosol. Therefore, calcium mobilization assay is commonly applied to understand how unknown small molecule ligands of 5-HT2C receptor modulate cellular signal transductions. In this case, Fluo-4 Direct dye was used as a fluorescence indicator to detect calcium flux in G protein-coupled receptor expressed cells. The fold of maximum response over average of basal reading is plotted against compound concentration to determine the potency of the compounds (Fig. 3). […]. […] After the dye loaded, cells were placed in a FLIPR^TETRA fluorescence imaging plate reader (Molecular Devices); drug dilutions, prepared at 3× final concentration in FLIPR buffer and aliquotted into 384-well plates, were also added to the FLIPR^TETRA. The fluidics module and plate reader of the FLIPR^TETRA were programmed to read baseline fluorescence for 10 s (1 read/s), then to add 10 μl of drug/well and to read for 6 min (1 read/s). […]

The target of assay [2] is T2, 5-HT2C receptor A222^5.46F (Homo sapiens, UniProt P28335, A222F/DEL255-298/G251D/H250E/H252N/INS299[…]/L248D/M247A/M300L/T253W).
T2 construct: the N- and C-terminals were truncated by 39 and 65 residues, respectively; PreScission protease site + 10× His (C); made in house
The assay can be described thus: Affinity MS assay, 5-HT2C mutant A222F. The class given is binding. The note with it: mutant A222^5.46F, n = 2. From the text:
Based on the binding poses predicted by molecular docking, single-point mutations were designed to test their impact on ligand binding. Mutations of several residues include the highly conserved Asp134^3.32, which is known to cause 5-HT1B or 5-HT2B receptors to abolish the monoamine ligand binding as reported in the literature (Wang et al. [2013]). In this study, residues forming hydrophobic interactions with the substitution groups on the aporphine scaffold of (–)-crebanine (1) were selected for mutation as well and they are Thr139^3.37, Gly218^5.42, Ala222^5.46, and Leu209^ECL2. Effects of those mutations were tested with the CPM assay and the affinity MS assay (Table 2). In the affinity MS experiment, relative ligand-binding capacity (represented by binding %) to different mutants and the wild-type receptor was compared. Among the six mutations tested, five of them reduced the binding of (–)-crebanine (1) by more than 40% relative to binding to the wild-type receptor, displaying the importance of hydrophobic interactions. […]
Four experimental replicates were prepared for each pair of the test ligand and the negative control. […] S/C ratios refer to the ratio of MS response of a specific ligand detected in the 5-HT2C incubation sample versus the control. […]

T2 sequence (P28335 with tags, fused parts or gaps with the stated changes): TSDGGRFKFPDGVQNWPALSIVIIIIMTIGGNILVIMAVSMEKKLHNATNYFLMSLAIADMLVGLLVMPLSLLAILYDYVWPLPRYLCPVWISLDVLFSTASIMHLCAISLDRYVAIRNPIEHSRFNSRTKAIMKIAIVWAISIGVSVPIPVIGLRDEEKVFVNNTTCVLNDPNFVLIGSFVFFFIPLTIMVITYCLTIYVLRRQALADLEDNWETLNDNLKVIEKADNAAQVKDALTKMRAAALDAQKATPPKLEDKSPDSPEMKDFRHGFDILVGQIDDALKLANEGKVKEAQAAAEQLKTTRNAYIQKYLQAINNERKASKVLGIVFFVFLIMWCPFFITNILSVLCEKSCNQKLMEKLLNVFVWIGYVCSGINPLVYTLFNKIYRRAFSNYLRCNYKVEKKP
T1 sequence (P28223 whole entry): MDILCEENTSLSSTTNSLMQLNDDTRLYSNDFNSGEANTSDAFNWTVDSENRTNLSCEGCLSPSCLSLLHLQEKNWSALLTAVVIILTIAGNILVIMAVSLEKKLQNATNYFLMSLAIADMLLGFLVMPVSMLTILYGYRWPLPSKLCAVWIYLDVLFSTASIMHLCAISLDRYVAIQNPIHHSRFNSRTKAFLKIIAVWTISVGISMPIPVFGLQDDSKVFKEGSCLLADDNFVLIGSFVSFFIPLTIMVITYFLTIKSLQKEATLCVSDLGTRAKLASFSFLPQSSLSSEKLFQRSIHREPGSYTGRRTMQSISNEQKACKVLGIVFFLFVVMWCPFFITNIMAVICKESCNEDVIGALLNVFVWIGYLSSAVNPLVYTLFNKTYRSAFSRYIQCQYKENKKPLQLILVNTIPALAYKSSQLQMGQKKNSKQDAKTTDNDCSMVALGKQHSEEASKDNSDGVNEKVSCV

`COc1ccc2c(c1OC)C[C@@H]1c3c(cc4c(c3-2)OCO4)CCN1C` [Compound 1, (–)-crebanine] returned an IC50 in assay [1] of 564 nM. For the same compound, the “(–)-Crebanine/MS relative ligand binding” value in assay [2] is 15.87%.
